From patent US20240254119A1 (THIRD HARMONIC BIO, INC., priority 2022, published 2024)

Target: T1, wtKIT (Homo sapiens, UniProt P10721)
T1 construct: 1888289AM in the reaction mixtures
Experiment: HTRF biochemical assay, wtKIT (phosphorylation of a peptide substrate)
Conditions: Table 4
Outline: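 HTRF read-out of FAM-peptide (1 µM) phosphorylation after anti-phosphotyrosine antibody addition and EDTA quench. Reaction: 5.0 nM wtKIT, 400 µM ATP, 10 mM Mn2+, HEPES pH 7.5, 1% DMSO, 3 h, 25 °C; optional enzyme-compound preincubation; enzyme level set for 10-20% conversion.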

T1 sequence (P10721 26-976): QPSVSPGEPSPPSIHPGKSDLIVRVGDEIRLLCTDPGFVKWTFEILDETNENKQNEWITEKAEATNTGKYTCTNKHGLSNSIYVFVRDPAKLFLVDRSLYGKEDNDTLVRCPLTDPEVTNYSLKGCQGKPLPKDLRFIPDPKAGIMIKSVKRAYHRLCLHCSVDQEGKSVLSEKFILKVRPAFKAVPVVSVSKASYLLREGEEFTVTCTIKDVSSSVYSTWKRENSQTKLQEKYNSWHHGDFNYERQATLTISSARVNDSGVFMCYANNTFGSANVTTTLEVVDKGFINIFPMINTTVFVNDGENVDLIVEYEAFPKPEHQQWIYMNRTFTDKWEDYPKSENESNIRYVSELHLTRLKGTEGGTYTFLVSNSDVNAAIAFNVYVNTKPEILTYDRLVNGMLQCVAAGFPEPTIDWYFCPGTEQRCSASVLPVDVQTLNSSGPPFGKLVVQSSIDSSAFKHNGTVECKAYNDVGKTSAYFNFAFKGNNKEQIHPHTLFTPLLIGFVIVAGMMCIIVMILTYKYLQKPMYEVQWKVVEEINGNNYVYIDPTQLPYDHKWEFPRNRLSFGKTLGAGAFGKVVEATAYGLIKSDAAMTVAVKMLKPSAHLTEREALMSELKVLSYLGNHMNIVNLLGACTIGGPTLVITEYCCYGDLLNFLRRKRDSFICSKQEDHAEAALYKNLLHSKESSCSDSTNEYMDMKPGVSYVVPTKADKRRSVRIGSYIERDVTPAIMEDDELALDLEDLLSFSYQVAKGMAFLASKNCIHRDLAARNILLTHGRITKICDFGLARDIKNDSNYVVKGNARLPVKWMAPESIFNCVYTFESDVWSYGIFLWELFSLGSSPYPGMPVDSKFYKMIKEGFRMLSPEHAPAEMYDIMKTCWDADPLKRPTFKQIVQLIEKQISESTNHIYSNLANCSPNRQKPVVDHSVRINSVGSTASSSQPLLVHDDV

Compound	IC50 [nM]
Cc1ccc(-c2noc(C3CC(F)(F)C3)n2)cc1NC(=O)c1cnc2cc(CO)ccn12 [Compound I-105]	≤ 50
Cc1ccc(-c2noc([C@H]3C[C@@H]3F)n2)cc1NC(=O)c1cnc2ccc(C3CNC3)cn12 [Compound I-106]	≤ 50
Cc1ccc2ncc(C(=O)Nc3cc(-c4noc([C@H]5C[C@@H]5F)n4)ccc3C)n2c1 [Compound I-108]	≤ 50
Cc1ccc(-c2noc([C@@H]3CC(F)(F)CN3)n2)cc1NC(=O)c1cnc2cc(COCCO)ccn12 [Compound I-111]	≤ 50
COC(=O)N1CC(c2nc(-c3ccc(C)c(NC(=O)c4cnc5cc(CO)ccn45)c3)no2)C1 [Compound I-120]	50 to 500

Target: T2, CSF-1R (Homo sapiens, UniProt P07333)
T2 construct: purchased Invitrogen PV3249 (lot 662393N)
Experiment: HTRF biochemical assay, CSF-1R
Conditions: Table 4
Protocol: (§1) Exemplary compounds were tested for ability to inhibit the phosphorylation of a peptide substrate by the tyrosine kinase wt KIT, PDGFRα, or CSF-1R. Assay procedures and results are described below.
(§2) Enzyme, substrate, and cofactors (ATP and Mn^2+) are combined in a well of a microtiter plate and incubated for 3 hours at 25° C. At the end of the incubation, the reaction is quenched by the addition of an EDTA-containing buffer.
(§3) The substrate used in the CSF-1R and PDGFRα assay is FAM-[…]-CONH2 (FAM is carboxyfluorescein). Peptide should be >95% purity. The substrate for the KIT assay is FAM-[…]-NH2.
(§4) • 1. To a well of a 384-wellplate add 5 μL of 2× enzyme buffer (or control). • 2. Add 100 nL of 100× compound. Enzyme and compound may be pre-incubated at this time if desired. • 3. Add 5 μL of 2× substrate buffer. • 4. Incubate plate at 25° C. for 3 hours. • 5. Add 10 uL of anti-phosphotyrosine antibody buffer. • 6. Read plate in BioTek Synergy Reader. Reaction Conditions for wtKIT Assay

T2 sequence (P07333 20-972): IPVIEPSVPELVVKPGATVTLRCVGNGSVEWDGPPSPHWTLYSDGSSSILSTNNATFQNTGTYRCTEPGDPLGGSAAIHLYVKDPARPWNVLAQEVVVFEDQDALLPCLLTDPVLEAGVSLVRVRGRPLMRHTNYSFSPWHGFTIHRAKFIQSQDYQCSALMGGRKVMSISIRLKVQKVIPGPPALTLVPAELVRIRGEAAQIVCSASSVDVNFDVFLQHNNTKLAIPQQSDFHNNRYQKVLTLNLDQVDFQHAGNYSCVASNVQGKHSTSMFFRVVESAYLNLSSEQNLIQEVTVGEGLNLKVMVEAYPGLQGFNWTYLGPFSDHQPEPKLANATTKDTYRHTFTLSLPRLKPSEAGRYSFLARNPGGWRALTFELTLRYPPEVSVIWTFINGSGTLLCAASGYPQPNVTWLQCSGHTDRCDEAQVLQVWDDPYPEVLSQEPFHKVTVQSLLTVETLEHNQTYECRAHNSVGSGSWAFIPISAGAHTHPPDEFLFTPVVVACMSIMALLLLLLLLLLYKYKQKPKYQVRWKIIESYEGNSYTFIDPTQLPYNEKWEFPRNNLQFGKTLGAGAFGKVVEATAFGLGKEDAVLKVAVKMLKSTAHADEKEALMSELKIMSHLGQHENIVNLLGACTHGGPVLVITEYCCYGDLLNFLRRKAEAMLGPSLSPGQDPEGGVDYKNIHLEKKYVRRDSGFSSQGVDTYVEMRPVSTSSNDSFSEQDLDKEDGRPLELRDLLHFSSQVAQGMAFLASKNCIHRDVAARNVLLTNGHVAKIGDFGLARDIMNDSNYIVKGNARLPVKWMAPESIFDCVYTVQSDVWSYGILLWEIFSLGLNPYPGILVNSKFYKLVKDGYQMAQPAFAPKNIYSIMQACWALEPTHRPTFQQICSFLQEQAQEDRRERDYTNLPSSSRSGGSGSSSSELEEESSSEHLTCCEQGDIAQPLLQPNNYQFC

Compound	IC50 [nM]
Cc1ccc(-c2noc(C3CC(F)(F)C3)n2)cc1NC(=O)c1cnc2cc(CO)ccn12 [Compound I-105]	≤ 50
Cc1ccc(-c2noc([C@H]3C[C@@H]3F)n2)cc1NC(=O)c1cnc2ccc(C3CNC3)cn12 [Compound I-106]	≤ 50
Cc1ccc2ncc(C(=O)Nc3cc(-c4noc([C@H]5C[C@@H]5F)n4)ccc3C)n2c1 [Compound I-108]	≤ 50
Cc1ccc(-c2noc([C@@H]3CC(F)(F)CN3)n2)cc1NC(=O)c1cnc2cc(COCCO)ccn12 [Compound I-111]	50 to 500
COC(=O)N1CC(c2nc(-c3ccc(C)c(NC(=O)c4cnc5cc(CO)ccn45)c3)no2)C1 [Compound I-120]	5000 to 30000

Target: T3, PDGFRα (Homo sapiens, UniProt P16234)
T3 construct: purchased Millipore 14-467 (lot 26321_ACTI)
Experiment: HTRF biochemical assay, PDGFRα
Conditions: Table 4, read-out: PDFGRα Biochemical IC50 avg
Protocol: as §1, §2, §3, §4

T3 sequence (P16234 24-1089): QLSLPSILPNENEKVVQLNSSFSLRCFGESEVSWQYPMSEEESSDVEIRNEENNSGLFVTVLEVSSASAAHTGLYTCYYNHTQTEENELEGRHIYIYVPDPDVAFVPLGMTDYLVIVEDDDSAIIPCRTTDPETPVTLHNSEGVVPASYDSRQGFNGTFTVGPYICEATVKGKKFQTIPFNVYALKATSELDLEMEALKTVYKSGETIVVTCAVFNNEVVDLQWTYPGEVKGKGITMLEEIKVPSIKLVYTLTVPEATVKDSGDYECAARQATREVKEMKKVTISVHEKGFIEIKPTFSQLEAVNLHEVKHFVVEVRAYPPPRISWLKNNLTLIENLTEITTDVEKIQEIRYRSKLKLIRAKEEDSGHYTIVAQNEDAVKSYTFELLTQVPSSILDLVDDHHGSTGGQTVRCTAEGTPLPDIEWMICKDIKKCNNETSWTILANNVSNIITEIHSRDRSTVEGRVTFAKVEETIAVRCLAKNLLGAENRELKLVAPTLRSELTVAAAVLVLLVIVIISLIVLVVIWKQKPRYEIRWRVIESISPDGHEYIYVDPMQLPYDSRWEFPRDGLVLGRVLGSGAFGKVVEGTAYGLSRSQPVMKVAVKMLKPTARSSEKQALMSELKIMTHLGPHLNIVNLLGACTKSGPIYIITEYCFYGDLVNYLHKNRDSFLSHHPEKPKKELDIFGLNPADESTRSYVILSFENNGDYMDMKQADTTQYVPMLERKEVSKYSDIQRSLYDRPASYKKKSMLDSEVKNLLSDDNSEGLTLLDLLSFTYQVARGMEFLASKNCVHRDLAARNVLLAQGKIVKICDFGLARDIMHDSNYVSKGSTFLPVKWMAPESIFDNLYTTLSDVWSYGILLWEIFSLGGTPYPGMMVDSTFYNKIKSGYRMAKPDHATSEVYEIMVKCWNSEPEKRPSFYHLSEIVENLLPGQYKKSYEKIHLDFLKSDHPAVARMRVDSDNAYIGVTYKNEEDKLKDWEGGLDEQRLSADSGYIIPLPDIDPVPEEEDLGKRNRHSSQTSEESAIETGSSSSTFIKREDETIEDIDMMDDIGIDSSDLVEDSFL

Compound	IC50 [nM]
Cc1ccc(-c2noc(C3CC(F)(F)C3)n2)cc1NC(=O)c1cnc2cc(CO)ccn12 [Compound I-105]	500 to 5000
Cc1ccc(-c2noc([C@H]3C[C@@H]3F)n2)cc1NC(=O)c1cnc2ccc(C3CNC3)cn12 [Compound I-106]	50 to 500
Cc1ccc2ncc(C(=O)Nc3cc(-c4noc([C@H]5C[C@@H]5F)n4)ccc3C)n2c1 [Compound I-108]	50 to 500
Cc1ccc(-c2noc([C@@H]3CC(F)(F)CN3)n2)cc1NC(=O)c1cnc2cc(COCCO)ccn12 [Compound I-111]	50 to 500
COC(=O)N1CC(c2nc(-c3ccc(C)c(NC(=O)c4cnc5cc(CO)ccn45)c3)no2)C1 [Compound I-120]	5000 to 30000

Tested on: KIT phosphorylation in M-07e cells
Experiment: Cell-based KIT phosphorylation in M-07e cells by pKIT ELISA
Design: species or system human
Conditions: SCF stimulation
Outline: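 Serum-starved M-07e cells (1 × 10^6/mL, overnight) were treated with compounds (8-point 3-fold series from 1 uM) for 2 h at 37 °C, then stimulated with 100 ng/mL SCF for 5 min. Lysate phospho-KIT was captured on anti-phospho-CD117 plates, detected with anti-pY-HRP, and read at 450 nm against a pc-KIT standard curve.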

Compound	IC50 [nM]
Cc1ccc(-c2noc(C3CC(F)(F)C3)n2)cc1NC(=O)c1cnc2cc(CO)ccn12 [Compound I-105]	50 to 500
Cc1ccc(-c2noc([C@H]3C[C@@H]3F)n2)cc1NC(=O)c1cnc2ccc(C3CNC3)cn12 [Compound I-106]	50 to 500
Cc1ccc2ncc(C(=O)Nc3cc(-c4noc([C@H]5C[C@@H]5F)n4)ccc3C)n2c1 [Compound I-108]	≤ 50
Cc1ccc(-c2noc([C@@H]3CC(F)(F)CN3)n2)cc1NC(=O)c1cnc2cc(COCCO)ccn12 [Compound I-111]	≤ 50
COC(=O)N1CC(c2nc(-c3ccc(C)c(NC(=O)c4cnc5cc(CO)ccn45)c3)no2)C1 [Compound I-120]	≤ 50

Tested on: CYP3A4
Experiment: Hepatocyte CYP induction assay, CYP3A4 gene expression
Type: in vitro ADME
Conditions: human hepatocytes, donor four
Protocol: Exemplary compounds were tested for ability to induce CYP3A4 and/or CYP1A2 in hepatocytes. Procedures and results are described below.
Cryopreserved human hepatocytes were purchased from BioIVT (Baltimore, MD, USA), and they were stored in liquid nitrogen before using. The detailed information of hepatocytes is as follows:
Fresh dosing solutions of test compounds, and Rifampicin were prepared in the incubation medium on the day of dosing.
Cryopreserved hepatocytes were thawed and counted to determine yield, viability was measured. Hepatocytes at the concentrations of 0.7 million/mL were transferred to collagen-coated 96-well plates for attachment (0.1 mL viable cells/well). After allowing 4 to 5 hours for attachment of cells, the plating medium was replaced with Incubation Medium containing 2% (v/v) Matrigel™ (sandwich medium) and the hepatocytes were incubated until use.
All incubations were conducted at 37° C., 5% CO2, and saturated humidity.
The sandwich medium was removed and the hepatocytes were treated with incubation solutions containing test articles in vehicle (0.1% DMSO), or positive control for 24 hours after the cultures were established. The incubation solution was aspirated and replaced with incubation solution containing the same concentrations of test articles, vehicle, or positive controls for an additional 24 hours. The total treatment period was 48 hours. Triplicate were used for each concentration of test compound and positive control.
After treatment period of 48 hours, the incubation solution was aspirated. Hepatocytes were washed once with pre-warmed HBSS and incubated with 140 μL of RLT (lysis buffer from Rneasy 96 Kit) supplemented with 1% β-mercaptoethanol. Plates were then stored at ≤−60° C. freezer until RNA analysis.
Before RNA extraction, the frozen plate was thawed and cell lysates were transferred to 96-well plates. RNA isolation was performed using QIAcube HT System. RNA concentration was measured with NanoDrop ND-2000 spectrophotometer. The purity of RNA preparation was calculated by the ratio of the OD260 nm/OD280 nm and the acceptable range is between 1.8 and 2.2. Reverse transcription was performed to obtain cDNA. Quantification of the selective genes by real time quantitative Polymerase Chain Reaction (qPCR) was performed with TaqMan universal PCR Master Mix on the BIO-RAD CFX 384 Touch Real Time PCR System. The following setting were used: 50° C. for 2 minutes, 95° C. for 10 minutes, 40 cycles of 95° C. for 15 seconds and 60° C. for 1 minute. 18S rRNA was used as the internal standard.
To account for variation in RNA yields and reverse transcription polymerase chain reaction (RT-PCR), the gene of interest in all samples was normalized to an internal control gene (18S ribosomal RNA) (Cttarget gene−Ct18S=ΔCt).
The relative quantitation or change in mRNA level of selected genes induced by each test compound was expressed in relation to the vehicle control sample (Δctcompound−ΔCtvehicle=ΔΔCt). Fold changes in gene expression were determined by taking 2 to the power of this value (2^−ΔΔt).
% of positive control [(fold change in treated sample)−1]/[(fold change in positive control)−1]×100

Compound	CYP 3A4 induction mRNA: Mean fold at 10 μM
Cc1ccc(-c2noc(CC(O)C(F)F)n2)cc1NC(=O)c1cnn2ccccc12 (single isomer, unassigned) [Compound I-39]	++ (induction fold of greater than 2-fold to less than or equal to 3-fold)
COC(=O)N1CC(c2nc(-c3ccc(C)c(NC(=O)c4cnn5ccccc45)c3)no2)C1 [Compound B, reference compound]	++ (induction fold of greater than 2-fold to less than or equal to 3-fold)
CCCS(=O)(=O)N1CC(c2nc(-c3ccc(C)c(NC(=O)c4cnc5ccccn45)c3)no2)C1 [Compound C, reference compound]	+++ (induction fold of greater than 3-fold to less than or equal to 10-fold)
Cc1ccc(-c2noc([C@H]3C[C@@H]3F)n2)cc1NC(=O)c1cnc2cc(CC(F)(F)F)ccn12 [Compound I-45]	++ (induction fold of greater than 2-fold to less than or equal to 3-fold)
COc1ccn2c(C(=O)Nc3cc(-c4noc(C5COC5)n4)ccc3C)cnc2c1 [Compound I-51]	++ (induction fold of greater than 2-fold to less than or equal to 3-fold)

Same assay, conditions: human hepatocytes, donor two

Compound	CYP 3A4 induction mRNA: Mean fold at 10 μM
Cc1ccc(-c2noc(C3CC(F)(F)C3)n2)cc1NC(=O)c1cnc2ccccn12 [Compound A, reference compound]	+++ (induction fold of greater than 3-fold to less than or equal to 10-fold)

Tested on: not listed separately
Experiment: Kinetic solubility assay
Type: physicochemical
Conditions: kinetic solubility, 50 mM PB (pH 7.4), shaken 24 hours at RT
Outline: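 Concentration in the filtrate was determined by UPLC-UV or HPLC-UV with a standard curve. Before that, compound (10 mM DMSO stock) in 50 mM PB at pH 7.4 was agitated 24 h at room temperature, then PTFE-filtered with centrifugation.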

Compound	Solubility (μM)
Cc1ccc(-c2noc(CC(O)C(F)F)n2)cc1NC(=O)c1cnn2ccccc12 (single isomer, unassigned) [Compound I-39]	**** (a solubility less than or equal to 2 μM)
Cc1ccc(-c2noc([C@H]3C[C@@H]3F)n2)cc1NC(=O)c1cnc2cc(CC(F)(F)F)ccn12 [Compound I-45]	**** (a solubility less than or equal to 2 μM)
COc1ccn2c(C(=O)Nc3cc(-c4noc(C5COC5)n4)ccc3C)cnc2c1 [Compound I-51]	**** (a solubility less than or equal to 2 μM)
Cc1ccc(-c2noc(C3CC(F)(F)C3)n2)cc1NC(=O)c1cnc2cc(CO)ccn12 [Compound I-105]	**** (a solubility less than or equal to 2 μM)
Cc1ccc(-c2noc([C@H]3C[C@@H]3F)n2)cc1NC(=O)c1cnc2ccc(C3CNC3)cn12 [Compound I-106]	* (a solubility greater than 50 μM)
Cc1ccc2ncc(C(=O)Nc3cc(-c4noc([C@H]5C[C@@H]5F)n4)ccc3C)n2c1 [Compound I-108]	**** (a solubility less than or equal to 2 μM)
Cc1ccc(-c2noc([C@@H]3CC(F)(F)CN3)n2)cc1NC(=O)c1cnc2cc(COCCO)ccn12 [Compound I-111]	* (a solubility greater than 50 μM)
COC(=O)N1CC(c2nc(-c3ccc(C)c(NC(=O)c4cnc5cc(CO)ccn45)c3)no2)C1 [Compound I-120]	**** (a solubility less than or equal to 2 μM)

Same assay, conditions: phosphate buffer, pH 7.4, aqueous buffer, kinetic from dmso stock

Compound	solubility at 24 h [µM]
Cc1ccc(-c2noc(C3CC(F)(F)C3)n2)cc1NC(=O)c1cnc2ccccn12 [Compound A, reference compound]	≤ 2
